Legend:
[1] = test system: TdTomato-modified T. cruzi (CL strain) in Vero cells; test: In vitro IC50 measurement of T. cruzi amastigote killing using TdTomato-modified T. cruzi (CL strain); type: cell-based; conditions: Trypanosoma cruzi, 72 h, fluorescence, read-out: IC50: I Org. amastigote Growth T. cruzi CL TdTomato, 3 d
Summary of the method: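 Vero cells were infected with tdTomato-expressing CL-strain parasites and dosed at 5 uM–5 nM. Fluorescence (ex 544/em 612 nm) was read at day 0 and again after 72 h at 37 °C, with day 0 values subtracted. IC50 and IC90 came from nonlinear regression.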

[2] = test system: luciferase-expressing L. major parasites developing intracellularly inside RAW 264.7 macrophages; test: Leishmania major intracellular amastigote assay in RAW 264.7 macrophages (luciferase); type: cell-based; conditions: RAW264.7, 96 hours, read-out: IC50: I Org. intracellular amastigote Growth L. major, 4 d
Summary of the method: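 RAW 264.7 macrophages infected overnight with luciferase-expressing L. major promastigotes, washed of extracellular parasites, then exposed to two-fold compound dilutions (final 0.5-10,000 ng/ml) for 96 h at 37° C, 5% CO2. Luciferin luminescence after 30 min; IC50 by sigmoidal variable-slope regression.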

| SMILES | IC50 [1] [µM] | IC50 [2] [µM] |
| --- | --- | --- |
| O=C(Nc1ccc2c(c1)B(O)OC21CCC1)c1cn(-c2ccc(F)cc2)nn1 [Example 7, 1-(4-fluorophenyl)-N-(1-hydroxy-1H-spiro[benzo[c][1,2]oxaborole-3,1′-cyclobutan]-6-yl)-1H-1,2,3-triazole-4-carboxamide] | 1.1 to 10 | 1.1 to 9.9 |
| COc1ccc(-n2cc(C(=O)Nc3ccc4c(c3)B(O)OC43CCC3)nn2)cc1 [Example 25, N-(1-hydroxy-1H-spiro[benzo[c][1,2]oxaborole-3,1′-cyclobutan]-6-yl)-1-(4-methoxyphenyl)-1H-1,2,3-triazole-4-carboxamide] | 0.6 to 1 | 10 to 50 |

— patent publication US11691992B2 (Anacor Pharmaceuticals, Inc., priority 2017, dated 2023)
